The text below walks through data of paper PMC6730544 (ACS infectious diseases, 2019).

Type in all cases: biochemical
The target of test [1] is T1, LpxH (UDP-2,3-diacylglucosamine pyrophosphatase) (Escherichia coli, UniProt P43341). Nature of the test: AaLpxE-coupled malachite green assay, residual activity at […].
Test [2] has as its target T1, LpxH (UDP-2,3-diacylglucosamine pyrophosphatase). The test is described as above. The source holds these as a separate data set.
Test [3] has the same target. Nature of the test: AaLpxE-coupled malachite green assay, dose-response.

T1 sequence (P43341 whole entry): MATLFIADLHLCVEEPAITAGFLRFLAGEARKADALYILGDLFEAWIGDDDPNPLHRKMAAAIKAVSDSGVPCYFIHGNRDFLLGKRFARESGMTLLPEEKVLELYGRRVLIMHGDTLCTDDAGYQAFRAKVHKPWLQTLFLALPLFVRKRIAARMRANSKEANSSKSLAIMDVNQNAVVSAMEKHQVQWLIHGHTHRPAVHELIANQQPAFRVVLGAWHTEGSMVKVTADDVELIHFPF

`CC(=O)N1CCc2cc(S(=O)(=O)N3CCN(c4ccccc4)CC3)ccc21` [3b, JH-LPH-09]: the “10 μM compound / Percentage Activity” value in test [1] is recorded as 32 ± 9.

Consider `CC(=O)Nc1ccc(S(=O)(=O)N2CCN(c3cccc(C(F)(F)F)c3)CC2)cc1` [compound 11, JH-LPH-15], for which the activity at 10 µM in test [1] (read-out: 10 μM compound / Percentage Activity) came out at 30 ± 11%.

Turning to `O=C(O)CCC(=O)N1CCc2cc(S(=O)(=O)N3CCN(c4cccc(Br)c4)CC3)ccc21` [22b, JH-LPH-08], the “1 μM compound / Percentage Activity” value in test [2] amounted to 52 ± 11.

For the molecule `CC(=O)N1CCc2cc(S(=O)(=O)N3CCN(c4cccc(-c5ccccc5)c4)CC3)ccc21` [3e, JH-LPH-25], the “1 μM compound / Percentage Activity” value in test [2] is 45 ± 10.

Regarding `CC(=O)N1CCc2cc(S(=O)(=O)N3CCN(c4cccc(Br)c4)CC3)ccc21` [3a, JH-LPH-06], in test [2] (read-out: 1 μM compound / Percentage Activity), the activity at 1 µM stood at 26 ± 8%.

For `CCc1cccc(N2CCN(S(=O)(=O)c3ccc4c(c3)CCN4C(C)=O)CC2)c1` [3c, JH-LPH-24], the “10 μM compound / Percentage Activity” value in test [1] stood at 21 ± 2.

Take `CC(=O)N1CCc2cc(S(=O)(=O)N3CCN(c4cccc(C(C)C)c4)CC3)ccc21` [3d, JH-LPH-26]: the “10 μM compound / Percentage Activity” value in test [1] is listed as 29 ± 3.

Broadly, the IC50 is the concentration that inhibits the measured activity by half. Higher therefore signals lower potency. In test [3], `CC(=O)N1CCc2cc(S(=O)(=O)N3CCN(c4cccc(C(F)(F)F)c4)CC3)ccc21` [AZ1] yielded an IC50 of 147 ± 2 nM.

Turning to `COC(=O)CCC(=O)N1CCc2cc(S(=O)(=O)N3CCN(c4cccc(Br)c4)CC3)ccc21` [22a, JH-LPH-07], the “1 μM compound / Percentage Activity” value in test [2] came to 53 ± 11.
